# Measured values: patent US9637520B2, “Template-fixed peptidomimetics with CXCR7 modulating activity” (POLYPHOR AG, priority 2010, dated 2017)
# Starred links: 1 amine or outer side, 2 acyl side, 3 side chain; linkers in the order of their positions; H or OH if unused. Non-standard residues stand in square brackets, D forms with d. Residues, ends and D or L forms follow the SMILES beside them. X3 = O=C(N[C@H]1C[C@@H](C(=O)[*:2])N([*:1])C1)c1ccccc1; 1Nal = N[C@@H](Cc1cccc2ccccc12)C(=O)O; Pro(3S-OH) = O=C(O)[C@H]1NCC[C@@H]1O; dDab = NCC[C@@H](N)C(=O)O; hSer = N[C@@H](CCO)C(=O)O; Dab = NCC[C@H](N)C(=O)O
# Target: T1, CXCR7 (Homo sapiens, UniProt P25106)
# T1 construct: host or cells: CHO (PathHunter CHO-CXCR7 β-arrestin cells)
# Test: CXCR7 β-arrestin recruitment assay (PathHunter CHO-CXCR7, DiscoverX), agonistic assay
# Type: cell-based
# Settings: not given
# Protocol: Lyophilized peptides were weighed on a Microbalance (Mettler MX5) and dissolved in DMSO to a final concentration of 10 mM unless otherwise stated. Stock solutions were kept at +4° C., and protected from light.
# 2.2 CXCR7 β-Arrestin Recruitment Assay
# The PathHunter CHO-CXCR7 (DiscoverX) assay was performed according to the manufacturer's protocol. In brief, CHO CXCR7 β-arrestin cells were seeded at a density of 5000 cells per well in 40 μl of F12 medium in black 96-half volume well culture plates and incubated overnight at 37° C. in a humidified atmosphere with 5% CO2. The next day, serial dilutions of PEM compounds have been prepared in DMSO and subsequently diluted in HBSS buffer containing 0.1% BSA.
# For agonistic assay, 10 μl of compound solution or a solution of stromal cell-derived factor-1 (SDF-1) as positive control was added to the cells with a final DMSO concentration of 1% (v/v). The plate was incubated for 90 min at 37° C. in 5% CO2 incubator with gentle shaking (300 rpm) before addition of 40 μl of detection reagent per well. Reaction was developed for 90 min at room temperature in the dark with shaking, and chemiluminescence was measured with a Topcount (Perkin Elmer) luminescence counter.
# T1 sequence (P25106 whole entry): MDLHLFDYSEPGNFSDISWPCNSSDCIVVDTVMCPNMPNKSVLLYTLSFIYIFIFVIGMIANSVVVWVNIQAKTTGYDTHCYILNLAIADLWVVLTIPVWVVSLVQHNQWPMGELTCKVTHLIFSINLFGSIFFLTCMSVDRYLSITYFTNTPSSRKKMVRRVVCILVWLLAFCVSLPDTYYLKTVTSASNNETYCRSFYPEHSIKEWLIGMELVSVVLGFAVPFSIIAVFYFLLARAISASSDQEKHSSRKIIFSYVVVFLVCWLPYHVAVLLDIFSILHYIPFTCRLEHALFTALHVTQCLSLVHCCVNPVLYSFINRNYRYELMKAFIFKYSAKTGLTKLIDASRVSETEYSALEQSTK
row,SMILES,EC50 [nM]
1,"O=C(N[C@H]1C[C@H]2C(=O)N[C@@H](Cc3c[nH]cn3)C(=O)N[C@H](Cc3c[nH]c4ccccc34)C(=O)N[C@@H](Cc3c[nH]cn3)C(=O)N[C@@H](Cc3c[nH]c4ccccc34)C(=O)N3CCC[C@@H]3C(=O)N2C1)c1ccccc1 [Ex. 51, cyclo(-His-^DTrp-His-Trp-^DPro-Pro((4S)NHBz)-)] (cyclo(HW[dP][X3]H[dW]))",413 ± 225

# Same assay, conditions: agonistic assay; CHO CXCR7 β-arrestin cells; 90 min at 37° C.; chemiluminescence; read-out: β-Arrestin EC50
row,SMILES,EC50 [nM]
1,"CC[C@H](C)[C@@H]1NC(=O)[C@H]([C@@H](C)O)NC(=O)[C@H]2CCCN2C(=O)[C@H]([C@@H](C)CC)NC(=O)[C@H](CCCNC(=N)N)NC(=O)[C@@H](CCCNC(=N)N)NC1=O [Ex. 1, cyclo(-Ile-^DArg-Arg-Ile-^DPro-Thr-)] (cyclo(I[dP]TI[dR]R))",79.7 ± 99.7
2,"CC[C@H](C)[C@@H]1NC(=O)[C@H]([C@@H](C)O)NC(=O)[C@H]2CCCN2C(=O)[C@H](Cc2c[nH]c3ccccc23)NC(=O)[C@H](CCN)NC(=O)[C@@H](CCCNC(=N)N)NC1=O [Ex. 4, cyclo(-Ile-^DArg-Dab-Trp-^DPro-Thr-)] (cyclo([Dab]W[dP]TI[dR]))",87 ± 84.1
3,"CC[C@H](C)[C@@H]1NC(=O)[C@H]([C@@H](C)O)NC(=O)[C@H]2CCCN2C(=O)[C@H](Cc2ccccc2)NC(=O)[C@H](CCCNC(=N)N)NC(=O)[C@@H](CCCNC(=N)N)NC1=O [Ex. 6, cyclo(-Ile-^DArg-Arg-Phe-^DPro-Thr-)] (cyclo(F[dP]TI[dR]R))",46.4 ± 57.9
4,"CC[C@H](C)[C@@H]1NC(=O)[C@H]([C@@H](C)O)NC(=O)[C@H]2CCCN2C(=O)[C@H](CCCNC(=N)N)NC(=O)[C@H](Cc2c[nH]c3ccccc23)NC(=O)[C@@H](CCCNC(=N)N)NC1=O [Ex. 17, cyclo(-Ile-^DArg-Trp-Arg-^DPro-Thr-)] (cyclo(I[dR]WR[dP]T))",62.5 ± 1.8
5,"C[C@@H](O)[C@@H]1NC(=O)[C@H]2CCCN2C(=O)[C@H](Cc2c[nH]c3ccccc23)NC(=O)[C@H](CCCNC(=N)N)NC(=O)[C@@H](CCCNC(=N)N)NC(=O)[C@H](Cc2c[nH]c3ccccc23)NC1=O [Ex. 20, cyclo(-Trp-^DArg-Arg-Trp-^DPro-Thr-)] (cyclo(RW[dP]TW[dR]))",538 ± 105
6,"CC[C@H](C)[C@@H]1NC(=O)[C@@H]2[C@@H](O)CCN2C(=O)[C@H]2CCCN2C(=O)[C@H](Cc2c[nH]c3ccccc23)NC(=O)[C@H](CCCNC(=N)N)NC(=O)[C@@H](CCCNC(=N)N)NC1=O [Ex. 21, cyclo(-Ile-^DArg-Arg-Trp-^DPro-Pro((3S)OH)—)] (cyclo(I[dR]RW[dP][Pro(3S-OH)]))",123 ± 85.2

# Further lines, results first:
row,EC50 [nM],SMILES
1,83.7 ± 77.4,"CC[C@H](C)[C@@H]1NC(=O)[C@H]([C@@H](C)O)NC(=O)[C@H]2CCCN2C(=O)[C@H](Cc2ccc(O)cc2)NC(=O)[C@H](CCCNC(=N)N)NC(=O)[C@@H](CCCNC(=N)N)NC1=O [Ex. 2, cyclo(-Ile-^DArg-Arg-Tyr-^DPro-Thr-)] (cyclo(I[dR]RY[dP]T))"
2,48.4 ± 67.5,"CC[C@H](C)[C@@H]1NC(=O)[C@H]([C@@H](C)O)NC(=O)[C@H]2CCCN2C(=O)[C@H](Cc2c[nH]c3ccccc23)NC(=O)[C@H](CCCNC(=N)N)NC(=O)[C@@H](CCN)NC1=O [Ex. 5, cyclo(-Ile-^DDab-Arg-Trp-^DPro-Thr-)] (cyclo(I[dDab]RW[dP]T))"
3,53.2 ± 35.8,"CC[C@H](C)[C@@H]1NC(=O)[C@H]([C@@H](C)O)NC(=O)[C@H]2CCCN2C(=O)[C@H](Cc2c[nH]c3ccccc23)NC(=O)[C@H](CCCNC(=N)N)NC(=O)[C@@H]([C@H](C)O)NC1=O [Ex. 7, cyclo(-Ile-^DThr-Arg-Trp-^DPro-Thr-)] (cyclo(I[dT]RW[dP]T))"
4,347 ± 10.3,"CC[C@H](C)[C@@H]1NC(=O)[C@H](CCO)NC(=O)[C@H]2CCCN2C(=O)[C@H](Cc2c[nH]c3ccccc23)NC(=O)[C@H](CCCNC(=N)N)NC(=O)[C@@H](CCCNC(=N)N)NC1=O [Ex. 8, cyclo(-Ile-^DArg-Arg-Trp-^DPro-hSer-)] (cyclo(I[dR]RW[dP][hSer]))"
5,28.5 ± 12.6,"C[C@@H](O)[C@@H]1NC(=O)[C@H]2CCCN2C(=O)[C@H](Cc2c[nH]c3ccccc23)NC(=O)[C@H](CCCNC(=N)N)NC(=O)[C@@H](CCCNC(=N)N)NC(=O)[C@H](Cc2cccc3ccccc23)NC1=O [Ex. 10, cyclo(-1Nal-^DArg-Arg-Trp-^DPro-Thr-)] (cyclo([1Nal][dR]RW[dP]T))"
6,12.8 ± 3.5,"CC[C@H](C)[C@@H]1NC(=O)[C@H](CO)NC(=O)[C@H]2CCCN2C(=O)[C@H](Cc2c[nH]c3ccccc23)NC(=O)[C@H](CCCNC(=N)N)NC(=O)[C@@H](CCCNC(=N)N)NC1=O [Ex. 22, cyclo(-Ile-^DArg-Arg-Trp-^DPro-Ser-)] (cyclo(I[dR]RW[dP]S))"
